Data published in patent US20260035359A1, “HERBICIDAL IMIDAZOLE COMPOUNDS” (SYNGENTA CROP PROTECTION AG, priority 2022, published 2026).

Assays:
Type in all cases: in vivo
[1] = system: Ipomoea hederacea (IPOHE); assay: Pre-emergence herbicidal glasshouse test; details: 250 g/ha, sprayed after one day cultivation, evaluated after 13 days
In short: (§1)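 Glasshouse spray test, 250 g/ha unless otherwise stated, applied 1 d (pre-emergence) or 8 d (post-emergence) after sowing. Percentage damage is scored at 13 d, banded 1 (0-20%) to 5 (81-100%).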

[2] = system: Echinochloa crus-gali (ECHCG); assay: Pre-emergence herbicidal glasshouse test; details: 250 g/ha, sprayed after one day cultivation, evaluated after 13 days
In short: as §1

Setaria faberi (SETFA) [3] = assay: Pre-emergence herbicidal glasshouse test; details: 250 g/ha, sprayed after one day cultivation, evaluated after 13 days
In short: as §1

[4] = system: Amaranthus retoflexus (AMARE); assay: Pre-emergence herbicidal glasshouse test; details: 250 g/ha, sprayed after one day cultivation, evaluated after 13 days
In short: as §1

[5] = system: Amaranthus pa/meri (AMAPA); assay: Pre-emergence herbicidal glasshouse test; details: 250 g/ha, sprayed after one day cultivation, evaluated after 13 days
In short: as §1

[6] = system: Ipomoea hederacea (IPOHE); assay: Post-emergence herbicidal glasshouse test; details: 250 g/ha, sprayed after 8 days cultivation, evaluated after 13 days
In short: as §1

[7] = system: Echinochloa crus-gali (ECHCG); assay: Post-emergence herbicidal glasshouse test; details: 250 g/ha, sprayed after 8 days cultivation, evaluated after 13 days
In short: as §1

Setaria faberi (SETFA) [8] = assay: Post-emergence herbicidal glasshouse test; details: 250 g/ha, sprayed after 8 days cultivation, evaluated after 13 days
In short: as §1

[9] = system: Amaranthus retoflexus (AMARE); assay: Post-emergence herbicidal glasshouse test; details: 250 g/ha, sprayed after 8 days cultivation, evaluated after 13 days
In short: as §1

[10] = system: Amaranthus pa/meri (AMAPA); assay: Post-emergence herbicidal glasshouse test; details: 250 g/ha, sprayed after 8 days cultivation, evaluated after 13 days
In short: as §1

Row | SMILES | percentage damage caused to the plant, IPOHE [1] | percentage damage caused to the plant, ECHCG [2] | percentage damage caused to the plant, SETFA (Setaria faberi (SETFA) [3]) | percentage damage caused to the plant, AMARE [4] | percentage damage caused to the plant, AMAPA [5] | percentage damage caused to the plant, IPOHE [6] | percentage damage caused to the plant, ECHCG [7] | percentage damage caused to the plant, SETFA (Setaria faberi (SETFA) [8]) | percentage damage caused to the plant, AMARE [9] | percentage damage caused to the plant, AMAPA [10]
1 | FC(F)(F)CCc1nc(C(F)(F)F)cn1Cc1ncc(Cl)cn1 [Compound 1.002, 5-chloro-2-[[4-(trifluoromethyl)-2-(3,3,3-trifluoropropyl)imidazol-1-yl]methyl]pyrimidine] | 5 (5=81-100%) | 5 (5=81-100%) | 5 (5=81-100%) | 5 (5=81-100%) | 5 (5=81-100%) | 5 (5=81-100%) | 5 (5=81-100%) | 5 (5=81-100%) | 5 (5=81-100%) | 5 (5=81-100%)
2 | CCOCCc1nc(C(F)(F)F)cn1Cc1ncc(Cl)cn1 [Compound 1.038] | 5 (5=81-100%) | 5 (5=81-100%) | 5 (5=81-100%) | 5 (5=81-100%) | 5 (5=81-100%) | 4 (4=61-80%) | 3 (3=41-60%) | 3 (3=41-60%) | 4 (4=61-80%) | 3 (3=41-60%)
3 | CC(O)CCc1nc(C(F)(F)F)cn1Cc1ncc(Cl)cn1 (stereo not drawn) [Compound 1.082] | 1 (1=0-20%) | 1 (1=0-20%) | 2 (2=21-40%) | 4 (4=61-80%) | 2 (2=21-40%) | 1 (1=0-20%) | 1 (1=0-20%) | 1 (1=0-20%) | 2 (2=21-40%) | 3 (3=41-60%)
4 | CC(C)(C#N)Cc1nc(C(F)(F)F)cn1Cc1ncc(Cl)cn1 [Compound 1.061] | 4 (4=61-80%) | 1 (1=0-20%) | 1 (1=0-20%) | 3 (3=41-60%) | 3 (3=41-60%) | 4 (4=61-80%) | 1 (1=0-20%) | 1 (1=0-20%) | 4 (4=61-80%) | 3 (3=41-60%)
5 | CCOCc1nc(C(F)(F)F)cn1Cc1ncc(Cl)cn1 [Compound 1.039] | 2 (2=21-40%) | 1 (1=0-20%) | 2 (2=21-40%) | 4 (4=61-80%) | 3 (3=41-60%) | 2 (2=21-40%) | 1 (1=0-20%) | 1 (1=0-20%) | 2 (2=21-40%) | 2 (2=21-40%)
6 | FC(F)(F)c1cn(Cc2ncc(Cl)cn2)c(CCl)n1 [Compound 1.071, 5-chloro-2-[[2-(chloromethyl)-4-(trifluoromethyl)imidazol-1-yl]methyl]pyrimidine] | 1 (1=0-20%) | 1 (1=0-20%) | 1 (1=0-20%) | 3 (3=41-60%) | 2 (2=21-40%) | 1 (1=0-20%) | 1 (1=0-20%) | 1 (1=0-20%) | 1 (1=0-20%) | 1 (1=0-20%)
7 | N#Cc1cn(Cc2ncc(Cl)cn2)c(CC2CCOC2)n1 (stereo not drawn) [Compound 1.073, 1-[(5-chloropyrimidin-2-yl)methyl]-2-(tetrahydrofuran-3-ylmethyl)imidazole-4-carbonitrile] | 2 (2=21-40%) | 1 (1=0-20%) | 1 (1=0-20%) | 2 (2=21-40%) | 2 (2=21-40%) | 3 (3=41-60%) | 1 (1=0-20%) | 1 (1=0-20%) | 2 (2=21-40%) | 2 (2=21-40%)
8 | CSCCc1nc(C(F)(F)F)cn1Cc1ncc(Cl)cn1 [Compound 1.083] | 5 (5=81-100%) | 1 (1=0-20%) | 1 (1=0-20%) | 4 (4=61-80%) | 3 (3=41-60%) | 4 (4=61-80%) | 1 (1=0-20%) | 1 (1=0-20%) | 4 (4=61-80%) | 3 (3=41-60%)
9 | FC(F)(F)CCCc1nc(Cl)c(Cl)n1Cc1ncc(Cl)cn1 [Compound 1.004, 5-chloro-2-[[4,5-dichloro-2-(4,4,4-trifluorobutyl)imidazol-1-yl]methyl]pyrimidine] | 2 (2=21-40%) | 3 (3=41-60%) | 4 (4=61-80%) | 5 (5=81-100%) | 5 (5=81-100%) | 3 (3=41-60%) | 3 (3=41-60%) | 4 (4=61-80%) | 4 (4=61-80%) | 4 (4=61-80%)
10 | N#CC1(c2nc(C(F)(F)F)cn2Cc2ncc(Cl)cc2F)CC1 [Compound 1.069] | 4 (4=61-80%) | 1 (1=0-20%) | 1 (1=0-20%) | 5 (5=81-100%) | 4 (4=61-80%) | 4 (4=61-80%) | 1 (1=0-20%) | 1 (1=0-20%) | 4 (4=61-80%) | 4 (4=61-80%)
11 | CC(F)(F)CCc1nc(C(F)(F)F)cn1Cc1ncc(Cl)cn1 [Compound 1.085] | 5 (5=81-100%) | 5 (5=81-100%) | 5 (5=81-100%) | 5 (5=81-100%) | 5 (5=81-100%) | 4 (4=61-80%) | 4 (4=61-80%) | 5 (5=81-100%) | 5 (5=81-100%) | 5 (5=81-100%)
12 | FC(F)c1ccn(CCc2nc(C(F)(F)F)cn2Cc2ncc(Cl)cn2)n1 [Compound 1.032] | 5 (5=81-100%) | 5 (5=81-100%) | 5 (5=81-100%) | 5 (5=81-100%) | 5 (5=81-100%) | 4 (4=61-80%) | 3 (3=41-60%) | 3 (3=41-60%) | 5 (5=81-100%) | 4 (4=61-80%)
